Assay results as given in PubChem BioAssay AID2060907 (Molecular Pharmacology Branch, DTP, NCI, 2025).
Where “and” joins values, the source holds several entries; their conditions need not be identical. Equal values may be shown once.

Test system: 388556-164-R-J1-PDC complex spheroid viability
Assay: Anticancer human tumor 388556-164-R-J1-PDC patient-derived colon adenocarcinoma cell line growth inhibition [RAS]
Conditions: for viability, T/C: stronger effect = lower value
From the text: RAS pathway inhibitors in Combinations in Complex Spheroids
A high-throughput screen of multi-cell type tumor spheroids was designed to identify active combinations of RAS pathway inhibitors and targeted small molecules. Complex spheroids include a stromal component modeled by human endothelial cells (HUVEC) and fibroblasts modeled by human mesenchymal stem cells (MSCs). The concentration ranges selected for each drug and investigational agent were based upon clinically achievable concentrations if the clinical Cmax of the agent was known.
Compounds. The drugs and investigational agents: abemaciclib (NSC768073), cobimetinib (NSC768068), divarasib (GDC6063, NSC841802), docetaxel (NSC628503), GDC-1971 (RLY-1971, NSC841576), gemcitabine (NSC613327), inavolisib (NSC800729), ipatasertib (NSC767898), KB-0742 (NSC834161), MRTX-1133 (NSC836407), osimertinib (NSC779217), RMC-4630 (NSC839698), RMC-6236 (NSC851965), RMC-6291 (NSC852671), Ro-3306 (NSC812927), sapanisertib (NSC764658), SN-38 (NSC673596), staurosporine (NSC755774), SY5609 (NSC837396), and tovorafenib (DAY101, NSC766906), were obtained from the National Cancer Institute (NCI) Developmental Therapeutics Program Chemical Repository. The FDA-approved anticancer drug set is available from the NCI Developmental Therapeutics Program. […] The stock solutions were prepared in dimethyl sulfoxide (DMSO, Sigma-Aldrich, St. Louis, MO, cat. D2650) at 800-fold the tested concentration and stored at -70 degrees C prior to their use. All drugs and investigational agents were tested over a range starting from a high concentration at or near the clinical Cmax and decreasing in half-log increments. If the clinical Cmax for an agent had not been determined, the highest concentration tested was 10 microM.
Cell Culture. All cells were maintained in an incubator at 37 degrees C and 5% CO2 with 95% humidity. The PDC lines were cultured according to standard operating procedures established by the NCI PDMR. All PDCs were thawed and cultured in Matrigel-coated flasks prepared with a working solution of 1X Ham's F-12 nutrient mix, without supplementation (Invitrogen, Waltham, MA, cat. 11765054), 100 U/mL penicillin-streptomycin (Invitrogen, cat. 15140122), and 2.5% Matrigel (Corning Inc., Corning, NY, cat. 354248) for the first three passages. The 362531-283-R-J2-PDC and 782815-120-R-J1-PDC lines were cultured in 6C/Colon 1B media, which includes advanced DMEM/F-12 (Thermo Fisher Scientific, cat. 12634028), 10 mM HEPES (Thermo Fisher Scientific, cat. 15630080), 1X GlutaMAX supplement (Thermo Fisher Scientific, cat. 35050061), 0.1 mg/mL primocin (InvivoGen, San Diego, CA, cat. ant-pm-2), 10% defined fetal bovine serum, heat inactivated (HyClone Laboratories Inc., Logan, UT, cat. SH30070.03HI), 50% L-WRN conditioned media (ATCC, cat. CRL-3276), 1.25 mM N-Acetyl-L-cysteine (Sigma-Aldrich, cat. A9165), 10 mM nicotinamide (Sigma-Aldrich, cat. N0636), 1X B-27 supplement (Thermo Fisher Scientific, cat. 17504044), 1X N-2 supplement (Thermo Fisher Scientific, cat. 17502048), 50 ng/mL human EGF (Thermo Fisher Scientific, cat. PHG0311), and 10 microM Y-27632 dihydrochloride (Tocris Bioscience, cat. 1254). The K12877-001-R-J1-PDC line was cultured in 6I media, which includes all 6C/Colon 1B media plus 10 ng/mL human FGF-10 (PeproTech, cat. 100-26), 1 ng/mL human FGF-2 (PeproTech, cat. 100-18B), 1 µM prostaglandin E2 (Tocris Bioscience, cat. 2296), […] hydrocortisone (Sigma-Aldrich, cat. H4001), and […] bovine insulin (Sigma-Aldrich, cat. I6634). The K86415-001-R-J1-PDC line was cultured in 6D media, which includes all 6C/Colon 1B media components minus the L-WRN conditioned media. The 485176-168-R4-J1-PDC was cultured in PANC media, which includes all 6C/Colon 1B media plus 100 ng/mL human FGF-10 (PeproTech, cat. 100-26), 500 nM SB-431542 (Selleckchem, cat. S1067), and 10 nM gastrin (Tocris Bioscience, cat. 3006). […]
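Further: spheroids exposed to compound for 7 days before readout.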
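Wherever viability, T/C is given: 100% = DMSO vehicle control luminescence.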

CC1(O)CCCC1n1c(=O)c(C(F)F)cc2cnc(NC3CCN(S(C)(=O)=O)CC3)nc21 (centres undefined) + C=CC(=O)N1CCN(c2nc(OCC3CCCN3C)nc3c(F)c(-c4nc(N)cc(C)c4C(F)(F)F)c(Cl)cc23)C(C)C1 showed an IC50 (curve of first compound, second compound 0.00316 µM) greater than 10 µM, an IC50 (curve of first compound, second compound 0.01 µM) greater than 10 µM and an IC50 (curve of first compound, second compound 0.0316 µM) greater than 10 µM. The IC50 (curve of first compound, second compound 0.1 µM) was greater than 10 µM, the IC50 (curve of first compound, second compound 0.316 µM) was greater than 10 µM and the IC50 (curve of first compound, second compound 1 µM) was greater than 10 µM. The viability, T/C (second compound 0.00316 µM, first compound 0.0316 µM) was 98.3%, the viability, T/C (second compound 0.00316 µM, first compound 0.1 µM) was 103% and the viability, T/C (second compound 0.00316 µM, first compound 0.316 µM) was 105%. It also gave a viability, T/C (second compound 0.00316 µM, first compound 1 µM) of 99.8%, a viability, T/C (second compound 0.00316 µM, first compound 3.16 µM) of 109% and a viability, T/C (second compound 0.00316 µM, first compound 10 µM) of 73.5%. It also gave a viability, T/C (second compound 0.01 µM, first compound 0.0316 µM) of 93.7%, a viability, T/C (second compound 0.01 µM, first compound 0.1 µM) of 107% and a viability, T/C (second compound 0.01 µM, first compound 0.316 µM) of 101%. It also gave a viability, T/C (second compound 0.01 µM, first compound 1 µM) of 98.9%, a viability, T/C (second compound 0.01 µM, first compound 3.16 µM) of 105% and a viability, T/C (second compound 0.01 µM, first compound 10 µM) of 77.2%. For the same molecule, the viability, T/C (second compound 0.0316 µM, first compound 0.0316 µM) was 101%, the viability, T/C (second compound 0.0316 µM, first compound 0.1 µM) was 104% and the viability, T/C (second compound 0.0316 µM, first compound 0.316 µM) was 102%. For the same molecule, the viability, T/C (second compound 0.0316 µM, first compound 1 µM) was 108%, the viability, T/C (second compound 0.0316 µM, first compound 3.16 µM) was 115% and the viability, T/C (second compound 0.0316 µM, first compound 10 µM) was 81%. For the same molecule, the viability, T/C (second compound 0.1 µM, first compound 0.0316 µM) was 103%, the viability, T/C (second compound 0.1 µM, first compound 0.1 µM) was 108% and the viability, T/C (second compound 0.1 µM, first compound 0.316 µM) was 99.5%. For the same molecule, the viability, T/C (second compound 0.1 µM, first compound 1 µM) was 99.2%, the viability, T/C (second compound 0.1 µM, first compound 3.16 µM) was 102% and the viability, T/C (second compound 0.1 µM, first compound 10 µM) was 76%. The viability, T/C (second compound 0.316 µM, first compound 0.0316 µM) was 102%, the viability, T/C (second compound 0.316 µM, first compound 0.1 µM) was 91.7% and the viability, T/C (second compound 0.316 µM, first compound 0.316 µM) was 96.9%. The viability, T/C (second compound 0.316 µM, first compound 1 µM) was 97.7%, the viability, T/C (second compound 0.316 µM, first compound 3.16 µM) was 101% and the viability, T/C (second compound 0.316 µM, first compound 10 µM) was 75.3%. For the same molecule, the viability, T/C (second compound 1 µM, first compound 0.0316 µM) was 98.7%, the viability, T/C (second compound 1 µM, first compound 0.1 µM) was 102% and the viability, T/C (second compound 1 µM, first compound 0.316 µM) was 100%. The viability, T/C (second compound 1 µM, first compound 1 µM) was 111%, the viability, T/C (second compound 1 µM, first compound 3.16 µM) was 104% and the viability, T/C (second compound 1 µM, first compound 10 µM) was 68.7%.

CCN1CCN(Cc2ccc(Nc3ncc(F)c(-c4cc(F)c5nc(C)n(C(C)C)c5c4)n3)nc2)CC1 was tested, and the viability, T/C (compound 0.00316 µM) was 99% and 107% and 91.4%, the viability, T/C (compound 0.01 µM) was 103% and 96.9% and 102% and the viability, T/C (compound 0.0316 µM) was 100% and 93.8% and 103%. For the same molecule, the viability, T/C (compound 0.1 µM) was 97.8% and 98.6% and 93.7%, the viability, T/C (compound 0.316 µM) was 83.3% and 90.2% and 96.2% and the viability, T/C (compound 1 µM) was 91.3% and 82.5% and 92.3%. For the same molecule, the IC50 (curve of compound) was greater than 1 µM.
